The NIST ThermoML archive (doi:10.1016/j.jct.2013.01.015)
Numbers after ± are expanded uncertainties.

Columns and labels:
[1] = 298.15 K; 101.33 kPa; Liquid; Vibrating tube method
[2] = refractive index (Na D-line) (dimensionless); details: 101.33 kPa, Liquid, Standard Abbe refractometry

| SMILES | mass density [1] [kg/m3] | refractive index ([2]; 298.2 K) | refractive index ([2]; 298.15 K) |
| --- | --- | --- | --- |
| CCCC(=O)O [butanoic acid] | 952.7 ± 0.2 | 1.3976 ± 0.0008 | – |
| CCCCCCO [hexan-1-ol] | 815.2 ± 0.6 | – | 1.4155 ± 0.0009 |
| CCCCCC [hexane] | 654.6 ± 0.3 | – | 1.3751 ± 0.0008 |
| O [water] | – | – | 1.3325 ± 0.0008 |
